Assay type: physicochemical
Experimental: Moreover, the assay of Hexadecyl Treprostinil crystal Form I can be kept between about 98.0% to about 102.0% even after thirty-six months of placement under normal storage temperature (about 5° C. to about −20° C.). […] Moreover, the assay of Hexadecyl Treprostinil crystal Form II can be kept between about 98.0 to about 102.0% even after thirty-six months of placement under normal storage temperature (about 5° C. to about […]).

## Hexadecyl Treprostinil [Hexadecyl Treprostinil crystal Form I]
  stability (other crystalline forms or degraded products of impurities): no other crystalline forms or degraded products of impurities
